Measured values reported in a melting point compilation (Tetko et al.; mined from patent text by program, amines drawn as free bases though some values may be those of a salt).

| Structure (SMILES) | melting point [°C] |
| --- | --- |
| COC=NC(C#N)=C(N)C#N | 138 to 139 |
| CCOC(=O)c1ccc(C=Cc2ccc(OC)cc2)cc1 | 191 to 192 |
| CCN(CC)c1ccc2nc3c4ccccc4c(=Nc4ccc5ccccc5n4)cc-3oc2c1 | 234 to 236 |
| CC(=O)Oc1ccccc1C(=O)N1CC(O)C[C@H]1C(=O)O (stereo not given in full) | 175 |
| COc1ccc2c(c1)c(CCO)c(C)n2-c1ccnc2cc(Cl)ccc12 | 143 to 145 |
| Nc1nc(N)nc(C2CC3CC2CC3c2nc(N)nc(N)n2)n1 (stereo not given) | 317 to 324 |
| CCCc1ccc(-c2ccn([C@H](CC(=O)OCc3ccccc3)C(=O)N[C@H](C(=O)NC)C(C)(C)C)c2)cc1 | 63 to 65 |
| COc1cc(CNC(=O)c2oc(=O)c3ncccc3c2-c2ccc(C)cc2)cc(OC)c1OC | 195 to 196 |
| Nc1cscc1NC(=S)Nc1c(Cl)csc1Cl | 110 to 115 |
| CCCCCCCNC(=O)Nc1ccc(N(C)C)cc1C(=O)NCC1CCN(C(c2ccc(OC)cc2)c2ccc(OC)cc2)CC1 | 163 |
| CCOC(=O)C#CC(C)(C)OC(N)=O | 111 to 114 |
| Cc1noc2ncnc(NC3Cc4ccccc4C3)c12 | 208 |
| Cc1ccc(C(=O)c2ccc(F)cc2)s1 | 68 |
| O=C(O)CCCN(C(=O)c1ccc(F)cc1)c1ccccc1-c1ccccc1 | 120 to 122 |
| C=C(C)[C@@H]1CC[C@]2(C(=O)O)CC[C@]3(C)[C@H](CC[C@@H]4[C@@]5(C)CC[C@H](OC(=O)[C@H]6C[C@@H](C(=O)O)C6(C)C)C(C)(C)[C@@H]5CC[C@]43C)[C@@H]12 | 308 to 310 |
| NC(=O)c1ncn(Cc2ccc(Cl)c(C(F)(F)F)c2)c1N | 230 to 232 |
| Cc1oc(-c2ccc3ccccc3c2)nc1COc1ccc(/C=C/C=O)cc1 | 179 to 180 |
| N#Cc1cnn(-c2ccc(Cl)nn2)c1N | 250 to 252 |
| COc1ccc2cc(-n3cnnc3)cc(C)c2n1 | 157 to 159 |
| O=C(c1ccccc1)C1CCN1C(c1ccccc1)c1ccccc1 (stereo not given) | 114 to 115 |
| CC(C)Cn1cnc2c(N)nc3ccc(CCCN4CCCC4=O)cc3c21 | 174 to 175 |
| C=CCc1cc(NC(C)=O)ccc1O | 82 to 85 |
| CC(C)(C)[Si](C)(C)OCC1(CO[Si](C)(C)C(C)(C)C)COc2cc(I)cc3c(=O)c(C(=O)NCc4ccc(Cl)cc4)cn1c23 | 158 to 159 |
| Nc1c(-c2ccc(-c3ccccc3F)cc2)nc2ccc(Cl)cc2c1C(=O)O | 247 to 249 |
| O=C(O)C1=Cc2cc(Br)cc(Cl)c2OC1C(F)(F)F (stereo not given) | 221 to 222 |

Further lines, results first:

| melting point [°C] | Structure (SMILES) |
| --- | --- |
| 162 to 164 | O=[N+]([O-])c1ccc(CCC2CCN(c3cc(Cl)nnc3Cl)CC2)cc1 |
| 164 | CCOC(=O)Nc1ccc2oc(-c3ccccc3)cc2c1 |
| 115 to 120 | CC(=O)C(=CS(=O)(=O)N(C)C)c1cccc([N+](=O)[O-])c1 |
| 302 to 304 | OCc1cnc2cc(C(F)(F)F)ccc2c1O |
| 100 to 102 | COc1cc(C(=O)NS(=O)(=O)c2ccccc2C)ccc1Cc1cccc2ccc(CCCC(=O)N3CCOCC3)cc12 |
| 100 to 103 | COc1ccccc1-c1cccc2c1OC(COS(=O)(=O)c1ccc(C)cc1)C2 (stereo not given) |
| 169 to 170 | NC(=O)CNC(=O)c1ccnc(-c2cccc3cc(Cc4cccc(C(F)(F)F)c4)sc23)c1F |
| 67 to 68 | Cc1nc(Cl)c(C)c(Cl)c1C |
| 181 to 183 | COc1cc(C(=O)O)cc(OC)c1OC(C)=O |
| 295 to 300 | OCc1cnc2cc(F)ccc2c1O |
| 86 to 88 | N#CCCc1cccc([N+](=O)[O-])c1 |
| 57 to 59 | COC1(c2ccc(F)cc2)CCC(=O)CC1 |
| 196 to 198 | CC(=O)Nc1ccc(OC(C)=O)c(C(=O)O)c1 |
| 239 to 242 | Oc1ccc2c(c1)COc1c-2cc2ccc(O)cc2c1-c1ccc(Cl)cc1 |
| 110 to 111 | c1ccc2c(c1)nc(-c1ccc3c(c1)OCO3)n2CCC1CCCCC1 |
